Source: patent US11753409B2, “Crystalline salts of a B-RAF kinase inhibitor” (Xynomic Pharmaceuticals, Inc., priority 2017, dated 2023)
Where two headings read alike, the source gives them in different places.

Experiments:
[1] = Equilibrium solubility in various aqueous media (solubility after 2 h); assay type: physicochemical; details: thermodynamic from solid
Description: Saturated solutions are prepared in well plates by adding an appropriate volume of selected aqueous media (typically in the range of 0.25-1.5 mL) into each well which contains a known quantity of solid drug substance (typically in the range 0.5-5.0 mg). The wells are shaken or stirred for a predefined time period (typically in a range of 2-24 h) and then filtered using appropriate filter membranes (typically PTFE-filters with 0.45 μm pore size). Filter absorption is avoided by discarding the first few drops of filtrate. The amount of dissolved drug substance is determined by UV spectroscopy. In addition, the pH of the aqueous saturated solution is measured using a glass-electrode pH meter.
The equilibrium solubility of N-(3-(5-((1-Ethylpiperidin-4-yl)(methyl)amino)-3-(pyrimidin-5-yl)-1H-pyrrolo[3,2-b]pyridin-1-yl)-2,4-difluorophenyl)propane-1-sulfonamide monohydrochloride salt in various media was determined.
The solubility of N-(3-(5-((1-Ethylpiperidin-4-yl)(methyl)amino)-3-(pyrimidin-5-yl)-1H-pyrrolo[3,2-b]pyridin-1-yl)-2,4-difluorophenyl)propane-1-sulfonamide monosuccinate salt in various media was determined.

[2] = Sorption-desorption (DVS) of the salts with XRPD before and after; assay type: physicochemical
Description: Dynamic Vapor Sorption (DVS) was performed in a IGAsorp Water Sorption Analyzer from Hiden Isochema. Adsorption and desorption isotherms were performed at 25° C. with 10% RH step intervals ranging from 0% relative humidity up to 90% relative humidity.

[3] = Intrinsic dissolution rate, rotating disc method; assay type: physicochemical; details: pH of medium 1.0 (0.1M HCl), 37° C.
[4] = Intrinsic dissolution rate, rotating disc method; assay type: physicochemical
Description: The intrinsic dissolution rate of 3-(5-((1-ethylpiperidin-4-yl)(methyl)amino)-3-(pyrimidin-5-yl)-1H-pyrrolo[3,2-b]pyridin-1-yl)-2,4-difluorophenyl)propane-1-sulfonamide salts was determined in aqueous media covering a range of pH 1.1-7.4 using the rotating disc method which maintains a constant surface area.
The drug substance (5 mg) was compressed at 356.1 Newtons for 60 s to form a disk. These disks were mounted to sample holders which fit into a miniaturized dissolution testing apparatus. The dissolution media were stirred at 200 rpm at a temperature of 37° C. Samples were automatically withdrawn every second minute from the dissolution vessel and assayed by UV spectrophotometry.
The intrinsic dissolution rate of N-(3-(5-((1-ethylpiperidin-4-yl)(methyl)amino)-3-(pyrimidin-5-yl)-TH-pyrrolo[3,2-b]pyridin-1-yl)-2,4-difluorophenyl)propane-1-sulfonamide monohydrochloride salt in various media was measured in media at various pH values.
The intrinsic dissolution rate of N-(3-(5-((1-ethylpiperidin-4-yl)(methyl)amino)-3-(pyrimidin-5-yl)-1H-pyrrolo[3,2-b]pyridin-1-yl)-2,4-difluorophenyl)propane-1-sulfonamide monosuccinate salt in various media was measured in media at various pH values.

[5] = Milling and compression stress followed by XRPD; assay type: physicochemical
Description: FIG. 20 is a plot of the XRPD of N-(3-(5-((1-ethylpiperidin-4-yl)(methyl)amino)-3-(pyrimidin-5-yl)-1H-pyrrolo[3,2-b]pyridin-1-yl)-2,4-difluorophenyl)propane-1-sulfonamide monohydrochloride salt following milling in a swing mill for 10 min. at 30 rps.
FIG. 21 is a plot of the XRPD of N-(3-(5-((1-ethylpiperidin-4-yl)(methyl)amino)-3-(pyrimidin-5-yl)-1H-pyrrolo[3,2-b]pyridin-1-yl)-2,4-difluorophenyl)propane-1-sulfonamide monohydrochloride salt following compression at 2000 N for 1 s to a tablet (diameter-5 mm).
FIG. 31 is a plot of the XRPD of N-(3-(5-((1-ethylpiperidin-4-yl)(methyl)amino)-3-(pyrimidin-5-yl)-1H-pyrrolo[3,2-b]pyridin-1-yl)-2,4-difluorophenyl)propane-1-sulfonamide monosuccinate salt following milling in a swing mill for 10 min. at 30 rps.
FIG. 32 is a plot of the XRPD of N-(3-(5-((1-ethylpiperidin-4-yl)(methyl)amino)-3-(pyrimidin-5-yl)-1H-pyrrolo[3,2-b]pyridin-1-yl)-2,4-difluorophenyl)propane-1-sulfonamide monosuccinate salt following compression at 2000 N for 1 s to a tablet (diameter-5 mm).

[6] = Pharmacokinetics following oral administration to rats; assay type: in vivo, HsdHan:WIST Norway rats; details: rat; for AUD: AUD range 0-6 h; for concentration at 24 h: mean n = 3, read-out: Blood Plasma Concentrations
Description: The pharmacokinetics of N-(3-(5-((1-ethylpiperidin-4-yl)(methyl)amino)-3-(pyrimidin-5-yl)-1H-pyrrolo[3,2-b]pyridin-1-yl)-2,4-difluorophenyl)propane-1-sulfonamide hydrochloride salt and N-(3-(5-((1-ethylpiperidin-4-yl)(methyl)amino)-3-(pyrimidin-5-yl)-1H-pyrrolo[3,2-b]pyridin-1-yl)-2,4-difluorophenyl)propane-1-sulfonamide […] following oral administration at 40 mg and 80 mg (dose calculated as the free base) to HsdHan:WIST Norway rats. Each salt was administered to 3 animals.

[7] = HsdHan:WIST, plasma, 40 mg/kg oral

Compound: CCCS(=O)(=O)Nc1ccc(F)c(-n2cc(-c3cncnc3)c3nc(N(C)C4CCN(CC)CC4)ccc32)c1F.Cl [Monohydrochloride Salt, N-(3-(5-((1-Ethylpiperidin-4-yl)(methyl)amino)-3-(pyrimidin-5-yl)-1H-pyrrolo[3,2-b]pyridin-1-yl)-2,4-difluorophenyl)propane-1-sulfonamide monohydrochloride salt]
- solubility at 2 h ([1]; 0.01 M HCl, simulated gastric fluid, HCl (0.01M)): 20 µg/mL
- solubility at 2 h ([1]; 0.1 M HCl, simulated gastric fluid, HCl (0.1M)): 60 µg/mL
- solubility at 2 h ([1]; aqueous buffer, 0.1M Citric acid): 400 µg/mL
- solubility at 2 h ([1]; aqueous buffer, 0.1M NaOH): > 10000 µg/mL
- solubility at 2 h ([1]; aqueous buffer, Acetate Buffer (pH 5.0)): 200 µg/mL
- solubility at 2 h ([1]; aqueous buffer, McIlvaine Buffer (pH 2.2)): 400 µg/mL
- solubility at 2 h ([1]; aqueous buffer, McIlvaine Buffer (pH 3.0)): 200 µg/mL
- solubility at 2 h ([1]; aqueous buffer, McIlvaine Buffer (pH 4.0)): 100 µg/mL
- solubility at 2 h ([1]; aqueous buffer, McIlvaine Buffer (pH 4.5)): 200 µg/mL
- solubility at 2 h ([1]; aqueous buffer, McIlvaine Buffer (pH 5.0)): 200 µg/mL
- solubility at 2 h ([1]; aqueous buffer, McIlvaine Buffer (pH 6.0)): 100 µg/mL
- solubility at 2 h ([1]; aqueous buffer, McIlvaine Buffer (pH 6.8)): 100 µg/mL
- solubility at 2 h ([1]; aqueous buffer, McIlvaine Buffer (pH 7.4)): 10 µg/mL
- solubility at 2 h ([1]; aqueous buffer, Phosphate Buffer (pH 6.8)): 200 µg/mL
- solubility at 2 h ([1]; aqueous buffer, Sorensen Buffer (pH 9.0)): 10 µg/mL
- solubility at 2 h ([1]; aqueous buffer, Sorensen Buffer (pH 11)): 700 µg/mL
- solubility at 2 h ([1]; Simulated intestinal fluid (FaSSIF)): 2 µg/mL
- solubility at 2 h ([1]; Simulated intestinal fluid (FeSSIF)): 30 µg/mL
- solubility at 2 h ([1]; water): 100 µg/mL
- Change in structure (XRPD) after sorption-desorption experiment ([2]; XRPD before and after): no significant change in structure occurred
- Reversible weight gain (isotherm sorption-desorption) ([2]; range from 0-80% relative humidity): approximately 2.5%
- Reversible weight gain (isotherm sorption-desorption) ([2]; range from 0-90% relative humidity): approximately 400%
- Weight gain (sorption-desorption) ([2]; range from 10-90% relative humidity, scale-up sample): approximately 2.4%
- Intrinsic Dissolution Rate [3]: 4 μg/cm^2/min.
- Intrinsic Dissolution Rate ([4]; pH of medium 2.2, 37° C.): 121 μg/cm^2/min.
- Intrinsic Dissolution Rate ([4]; pH of medium 3.0, 37° C.): 80 μg/cm^2/min.
- Intrinsic Dissolution Rate ([4]; pH of medium 4.5, 37° C.): 38 μg/cm^2/min.
- Intrinsic Dissolution Rate ([4]; pH of medium 6.8, 37° C.): 15 μg/cm^2/min.
- Intrinsic Dissolution Rate ([4]; pH of medium 7.4, 37° C.): 3 μg/cm^2/min.
- Crystallinity and polymorphic form after compression (XRPD) ([5]; 2000 N for 1 s to a tablet (diameter 5 mm)): slight decrease in crystallinity but no change in polymorphic form
- Crystallinity and polymorphic form after milling (XRPD) ([5]; swing mill for 10 min. at 30 rps): significant decrease in crystallinity but no change in polymorphic form
- AUD ([6]; 40 mg/kg oral): 0.312 µM·h
- AUD ([6]; 80 mg/kg oral): 1.04 µM·h
- Cmax ([6]; HsdHan:WIST, in vivo, 80 mg/kg oral): 419 nM
- bioavailability ([6]; HsdHan:WIST, plasma, po, 40 mg/kg dose): 1%
- Cmax [6, 7]: 123 nM
- Tmax [6, 7]: 3.3 h
- Tmax ([6]; HsdHan:WIST, plasma, 80 mg/kg oral): 4 h
- concentration at 24 h ([6]; Time 0.5, 40 mg/kg oral): 3.53 nM
- concentration at 24 h ([6]; Time 1.0, 40 mg/kg oral): 6.56 nM
- concentration at 24 h ([6]; Time 1.0, 80 mg/kg oral): 3.69 nM
- concentration at 24 h ([6]; Time 2.0, 40 mg/kg oral): 107 nM
- concentration at 24 h ([6]; Time 2.0, 80 mg/kg oral): 69.9 nM
- concentration at 24 h ([6]; Time 4.0, 40 mg/kg oral): 60.9 nM
- concentration at 24 h ([6]; Time 4.0, 80 mg/kg oral): 419 nM
- concentration at 24 h ([6]; Time 6.0, 40 mg/kg oral): 13.3 nM
- concentration at 24 h ([6]; Time 6.0, 80 mg/kg oral): 69 nM
